{"source": "patent US4401604A", "about": "“Process for preparing thiosulfenamide derivatives of N-phosphonomethylglycine triesters” (Monsanto Company, priority 1981, dated 1983)", "assay_type_in_all_cases": "in vivo", "key": {"Soybean": {"test_system": "Soybean", "assay": "Post-emergence herbicidal activity, greenhouse", "details": "Table II", "outline": "(§1)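 2–3-week-old plants, post-emergence atomizer spray, ~0.4% emulsifier; candidate from 1.0% stock in acetone, THF or water. Greenhouse hold; injury vs control at ~2/4 WAT.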"}, "Lambsquarters [1]": {"test_system": "Lambsquarters", "assay": "Post-emergence herbicidal activity, greenhouse", "outline": "as §1"}, "Yellow Nutsedge [2]": {"test_system": "Yellow Nutsedge", "assay": "Post-emergence herbicidal activity, greenhouse", "details": "Table I, 4 WAT", "outline": "as §1"}, "Panicum Spp": {"test_system": "Panicum Spp", "assay": "Post-emergence herbicidal activity, greenhouse", "details": "Table II", "outline": "as §1"}, "Barnyardgrass [3]": {"test_system": "Barnyardgrass", "assay": "Post-emergence herbicidal activity, greenhouse", "outline": "as §1"}, "Hemp Sesbania": {"test_system": "Hemp Sesbania", "assay": "Post-emergence herbicidal activity, greenhouse", "details": "Table II", "outline": "as §1"}, "Canada Thistle [4]": {"test_system": "Canada Thistle", "assay": "Post-emergence herbicidal activity, greenhouse", "details": "Table I, 4 WAT", "outline": "as §1"}, "Morningglory [5]": {"test_system": "Morningglory", "assay": "Post-emergence herbicidal activity, greenhouse", "outline": "as §1"}, "Crabgrass": {"test_system": "Crabgrass", "assay": "Post-emergence herbicidal activity, greenhouse", "details": "Table II", "outline": "as §1"}, "Cocklebur [6]": {"test_system": "Cocklebur", "assay": "Post-emergence herbicidal activity, greenhouse", "outline": "as §1"}, "Rice": {"test_system": "Rice", "assay": "Post-emergence herbicidal activity, greenhouse", "details": "Table II", "outline": "as §1"}, "Velvetleaf": {"test_system": "Velvetleaf", "assay": "Pre-emergent herbicidal activity", "details": "Table III; 11.2 kg/h; 2 WAT", "outline": "(§2)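 Emergence counts versus untreated controls, taken after approximately two weeks on a wet sand bench, give an index of average percent control per species. The active ingredient, at a known amount, is blended into the soil that covers seeds pressed onto compacted top soil; watering occurs through the pan bottoms.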"}, "Lambsquarters [7]": {"test_system": "Lambsquarters", "assay": "Pre-emergent herbicidal activity", "details": "Table III; 11.2 kg/h; 2 WAT", "outline": "as §2"}, "Yellow Nutsedge [8]": {"test_system": "Yellow Nutsedge", "assay": "Pre-emergent herbicidal activity", "details": "Table III; 11.2 kg/h; 2 WAT", "outline": "as §2"}, "Barnyardgrass [9]": {"test_system": "Barnyardgrass", "assay": "Pre-emergent herbicidal activity", "details": "Table III; 11.2 kg/h; 2 WAT", "outline": "as §2"}, "Smartweed": {"test_system": "Smartweed", "assay": "Pre-emergent herbicidal activity", "details": "Table III; 11.2 kg/h; 2 WAT", "outline": "as §2"}, "Canada Thistle [10]": {"test_system": "Canada Thistle", "assay": "Pre-emergent herbicidal activity", "details": "Table III; 11.2 kg/h; 2 WAT", "outline": "as §2"}, "Downy Brome": {"test_system": "Downy Brome", "assay": "Pre-emergent herbicidal activity", "details": "Table III; 11.2 kg/h; 2 WAT", "outline": "as §2"}, "Johnsongrass": {"test_system": "Johnsongrass", "assay": "Pre-emergent herbicidal activity", "details": "Table III; 11.2 kg/h; 2 WAT", "outline": "as §2"}, "Morningglory [11]": {"test_system": "Morningglory", "assay": "Pre-emergent herbicidal activity", "details": "Table III; 11.2 kg/h; 2 WAT", "outline": "as §2"}, "Cocklebur [12]": {"test_system": "Cocklebur", "assay": "Pre-emergent herbicidal activity", "details": "Table III; 11.2 kg/h; 2 WAT", "outline": "as §2"}, "Quackgrass": {"test_system": "Quackgrass", "assay": "Pre-emergent herbicidal activity", "details": "Table III; 11.2 kg/h; 2 WAT", "outline": "as §2"}}, "data": [{"smiles": "COC(=O)CN(CP(=O)(Oc1ccccc1)Oc1ccccc1)SSC(C)C", "note": "[I, Glycine, N-[(diphenoxyphosphinyl)methyl]-N-[(1-methylethyl)dithio]-, methyl ester]", "values": [{"measurement": "post-emergence herbicidal activity index", "setting": "Soybean; 0.056 kg/h, 2 WAT", "result": "0 (0- 24% control)"}, {"measurement": "post-emergence herbicidal activity index", "setting": "Soybean; 0.28 kg/h, 2 WAT", "result": "0 (0- 24% control)"}, {"measurement": "post-emergence herbicidal activity index", "setting": "Soybean; 1.12 kg/h, 4 WAT", "result": "1 (25-49% control)"}, {"measurement": "post-emergence herbicidal activity index", "setting": "Soybean; 5.6 kg/h, 4 WAT", "result": "3 (75-99% control)"}, {"measurement": "post-emergence herbicidal activity index", "setting": "Soybean; 11.2 kg/h, 4 WAT", "result": "0 (0- 24% control)"}, {"measurement": "post-emergence herbicidal activity index", "setting": "Lambsquarters [1]; Table I, 5.6 kg/h, 4 WAT", "result": "3 (75-99% control)"}, {"measurement": "post-emergence herbicidal activity index", "setting": "Lambsquarters [1]; Table I, 11.2 kg/h, 4 WAT", "result": "4 (100% control)"}, {"measurement": "post-emergence herbicidal activity index", "setting": "Lambsquarters [1]; Table II, 0.056 kg/h, 2 WAT", "result": "0 (0- 24% control)"}, {"measurement": "post-emergence herbicidal activity index", "setting": "Lambsquarters [1]; Table II, 0.28 kg/h, 2 WAT", "result": "0 (0- 24% control)"}, {"measurement": "post-emergence herbicidal activity index", "setting": "Lambsquarters [1]; Table II, 1.12 kg/h, 4 WAT", "result": "3 (75-99% control)"}, {"measurement": "post-emergence herbicidal activity index", "setting": "Lambsquarters [1]; Table II, 5.6 kg/h, 4 WAT", "result": "4 (100% control)"}, {"measurement": "post-emergence herbicidal activity index", "setting": "Lambsquarters [1]; Table II, 11.2 kg/h, 4 WAT", "result": "3 (75-99% control)"}, {"measurement": "post-emergence herbicidal activity index", "setting": "Yellow Nutsedge [2]; 5.6 kg/h", "result": "3 (75-99% control)"}, {"measurement": "post-emergence herbicidal activity index", "setting": "Yellow Nutsedge [2]; 11.2 kg/h", "result": "3 (75-99% control)"}, {"measurement": "post-emergence herbicidal activity index", "setting": "Panicum Spp; 0.056 kg/h, 2 WAT", "result": "0 (0- 24% control)"}, {"measurement": "post-emergence herbicidal activity index", "setting": "Panicum Spp; 0.28 kg/h, 2 WAT", "result": "1 (25-49% control)"}, {"measurement": "post-emergence herbicidal activity index", "setting": "Panicum Spp; 1.12 kg/h, 4 WAT", "result": "1 (25-49% control)"}, {"measurement": "post-emergence herbicidal activity index", "setting": "Panicum Spp; 5.6 kg/h, 4 WAT", "result": "3 (75-99% control)"}, {"measurement": "post-emergence herbicidal activity index", "setting": "Panicum Spp; 11.2 kg/h, 4 WAT", "result": "3 (75-99% control)"}, {"measurement": "post-emergence herbicidal activity index", "setting": "Barnyardgrass [3]; Table I, 5.6 kg/h, 4 WAT", "result": "4 (100% control)"}, {"measurement": "post-emergence herbicidal activity index", "setting": "Barnyardgrass [3]; Table I, 11.2 kg/h, 4 WAT", "result": "4 (100% control)"}, {"measurement": "post-emergence herbicidal activity index", "setting": "Barnyardgrass [3]; Table II, 0.056 kg/h, 2 WAT", "result": "0 (0- 24% control)"}, {"measurement": "post-emergence herbicidal activity index", "setting": "Barnyardgrass [3]; Table II, 0.28 kg/h, 2 WAT", "result": "1 (25-49% control)"}, {"measurement": "post-emergence herbicidal activity index", "setting": "Barnyardgrass [3]; Table II, 1.12 kg/h, 4 WAT", "result": "2 (50-74% control)"}, {"measurement": "post-emergence herbicidal activity index", "setting": "Barnyardgrass [3]; Table II, 5.6 kg/h, 4 WAT", "result": "4 (100% control)"}, {"measurement": "post-emergence herbicidal activity index", "setting": "Barnyardgrass [3]; Table II, 11.2 kg/h, 4 WAT", "result": "3 (75-99% control)"}, {"measurement": "post-emergence herbicidal activity index", "setting": "Hemp Sesbania; 0.056 kg/h, 2 WAT", "result": "0 (0- 24% control)"}, {"measurement": "post-emergence herbicidal activity index", "setting": "Hemp Sesbania; 0.28 kg/h, 2 WAT", "result": "0 (0- 24% control)"}, {"measurement": "post-emergence herbicidal activity index", "setting": "Hemp Sesbania; 1.12 kg/h, 4 WAT", "result": "1 (25-49% control)"}, {"measurement": "post-emergence herbicidal activity index", "setting": "Hemp Sesbania; 5.6 kg/h, 4 WAT", "result": "4 (100% control)"}, {"measurement": "post-emergence herbicidal activity index", "setting": "Hemp Sesbania; 11.2 kg/h, 4 WAT", "result": "0 (0- 24% control)"}, {"measurement": "post-emergence herbicidal activity index", "setting": "Canada Thistle [4]; 5.6 kg/h", "result": "2 (50-74% control)"}, {"measurement": "post-emergence herbicidal activity index", "setting": "Canada Thistle [4]; 11.2 kg/h", "result": "3 (75-99% control)"}, {"measurement": "post-emergence herbicidal activity index", "setting": "Morningglory [5]; Table I, 5.6 kg/h, 4 WAT", "result": "4 (100% control)"}, {"measurement": "post-emergence herbicidal activity index", "setting": "Morningglory [5]; Table I, 11.2 kg/h, 4 WAT", "result": "3 (75-99% control)"}, {"measurement": "post-emergence herbicidal activity index", "setting": "Morningglory [5]; Table II, 0.056 kg/h, 2 WAT", "result": "0 (0- 24% control)"}, {"measurement": "post-emergence herbicidal activity index", "setting": "Morningglory [5]; Table II, 0.28 kg/h, 2 WAT", "result": "0 (0- 24% control)"}, {"measurement": "post-emergence herbicidal activity index", "setting": "Morningglory [5]; Table II, 1.12 kg/h, 4 WAT", "result": "2 (50-74% control)"}, {"measurement": "post-emergence herbicidal activity index", "setting": "Morningglory [5]; Table II, 5.6 kg/h, 4 WAT", "result": "3 (75-99% control)"}, {"measurement": "post-emergence herbicidal activity index", "setting": "Morningglory [5]; Table II, 11.2 kg/h, 4 WAT", "result": "1 (25-49% control)"}, {"measurement": "post-emergence herbicidal activity index", "setting": "Crabgrass; 0.056 kg/h, 2 WAT", "result": "0 (0- 24% control)"}, {"measurement": "post-emergence herbicidal activity index", "setting": "Crabgrass; 0.28 kg/h, 2 WAT", "result": "0 (0- 24% control)"}, {"measurement": "post-emergence herbicidal activity index", "setting": "Crabgrass; 1.12 kg/h, 4 WAT", "result": "3 (75-99% control)"}, {"measurement": "post-emergence herbicidal activity index", "setting": "Crabgrass; 5.6 kg/h, 4 WAT", "result": "4 (100% control)"}, {"measurement": "post-emergence herbicidal activity index", "setting": "Crabgrass; 11.2 kg/h, 4 WAT", "result": "3 (75-99% control)"}, {"measurement": "post-emergence herbicidal activity index", "setting": "Cocklebur [6]; Table I, 5.6 kg/h, 4 WAT", "result": "4 (100% control)"}, {"measurement": "post-emergence herbicidal activity index", "setting": "Cocklebur [6]; Table I, 11.2 kg/h, 4 WAT", "result": "4 (100% control)"}, {"measurement": "post-emergence herbicidal activity index", "setting": "Cocklebur [6]; Table II, 0.056 kg/h, 2 WAT", "result": "0 (0- 24% control)"}, {"measurement": "post-emergence herbicidal activity index", "setting": "Cocklebur [6]; Table II, 0.28 kg/h, 2 WAT", "result": "0 (0- 24% control)"}, {"measurement": "post-emergence herbicidal activity index", "setting": "Cocklebur [6]; Table II, 1.12 kg/h, 4 WAT", "result": "2 (50-74% control)"}, {"measurement": "post-emergence herbicidal activity index", "setting": "Cocklebur [6]; Table II, 5.6 kg/h, 4 WAT", "result": "3 (75-99% control)"}, {"measurement": "post-emergence herbicidal activity index", "setting": "Cocklebur [6]; Table II, 11.2 kg/h, 4 WAT", "result": "0 (0- 24% control)"}, {"measurement": "post-emergence herbicidal activity index", "setting": "Rice; 0.056 kg/h, 2 WAT", "result": "0 (0- 24% control)"}, {"measurement": "post-emergence herbicidal activity index", "setting": "Rice; 0.28 kg/h, 2 WAT", "result": "0 (0- 24% control)"}, {"measurement": "post-emergence herbicidal activity index", "setting": "Rice; 1.12 kg/h, 4 WAT", "result": "0 (0- 24% control)"}, {"measurement": "post-emergence herbicidal activity index", "setting": "Rice; 5.6 kg/h, 4 WAT", "result": "3 (75-99% control)"}, {"measurement": "post-emergence herbicidal activity index", "setting": "Rice; 11.2 kg/h, 4 WAT", "result": "3 (75-99% control)"}, {"measurement": "pre-emergent herbicidal activity index", "setting": "Velvetleaf", "result": "0 (0-24% control)"}, {"measurement": "pre-emergent herbicidal activity index", "setting": "Lambsquarters [7]", "result": "3 (75-100% control)"}, {"measurement": "pre-emergent herbicidal activity index", "setting": "Yellow Nutsedge [8]", "result": "3 (75-100% control)"}, {"measurement": "pre-emergent herbicidal activity index", "setting": "Barnyardgrass [9]", "result": "2 (50-74% control)"}, {"measurement": "pre-emergent herbicidal activity index", "setting": "Smartweed", "result": "2 (50-74% control)"}, {"measurement": "pre-emergent herbicidal activity index", "setting": "Canada Thistle [10]", "result": "3 (75-100% control)"}, {"measurement": "pre-emergent herbicidal activity index", "setting": "Downy Brome", "result": "2 (50-74% control)"}, {"measurement": "pre-emergent herbicidal activity index", "setting": "Johnsongrass", "result": "0 (0-24% control)"}, {"measurement": "pre-emergent herbicidal activity index", "setting": "Morningglory [11]", "result": "1 (25-49% control)"}, {"measurement": "pre-emergent herbicidal activity index", "setting": "Cocklebur [12]", "result": "1 (25-49% control)"}, {"measurement": "pre-emergent herbicidal activity index", "setting": "Quackgrass", "result": "3 (75-100% control)"}]}]}
